Earlier results as cited in patent publication US8158147B2, “Modified release formulations of at least one form of tramadol” (priority 2002, dated 2012).
Read-outs that look alike come from different tables or passages of the source.

Legend:
[1] = tested on: osteoarthritis; settings: Study No. 058; 6 weeks; rofecoxib 12.5 mg, Nabumetone 1500 mg
[2] = tested on: osteoarthritis; settings: 12 weeks, celecoxib 100 mg BID, Naproxen 500 mg BID

Structure (SMILES) | WOMAC pain walking on a flat surface, mean difference vs placebo [1] [mm] | LS mean difference in pain VAS change from baseline vs placebo ([2]; Study No. 020) [mm] | LS mean difference in pain VAS change from baseline vs placebo ([2]; Study No. 054) [mm]
COc1ccc2cc(CCC(C)=O)ccc2c1 [Nabumetone] | 10 |  | 
COc1ccc2cc([C@H](C)C(=O)O)ccc2c1 [Naproxen] |  | 7.6 | 11.2
CS(=O)(=O)c1ccc(C2=C(c3ccccc3)C(=O)OC2)cc1 [rofecoxib, Rofecoxib] | 9.0 |  | 
